Molecules are shown by their SMILES. Square brackets hold non-standard residues; d marks the D form. Peptide text beside a SMILES is read from it. * marks the point of attachment. Hydrocinnamoyl = O=C(CCc1ccccc1)*; Nle = CCCC[C@H](N)C(=O)O; Hexanoyl = CCCCCC(=O)*

This assay concerns the target T1, PTH receptor, bovine renal cortical plasma membranes (Bos taurus, UniProt Q1LZF7).
T1 construct: from tissue; host or cells: bovine renal cortex (plasma membrane preparation)
T1 sequence (Q1LZF7 29-589): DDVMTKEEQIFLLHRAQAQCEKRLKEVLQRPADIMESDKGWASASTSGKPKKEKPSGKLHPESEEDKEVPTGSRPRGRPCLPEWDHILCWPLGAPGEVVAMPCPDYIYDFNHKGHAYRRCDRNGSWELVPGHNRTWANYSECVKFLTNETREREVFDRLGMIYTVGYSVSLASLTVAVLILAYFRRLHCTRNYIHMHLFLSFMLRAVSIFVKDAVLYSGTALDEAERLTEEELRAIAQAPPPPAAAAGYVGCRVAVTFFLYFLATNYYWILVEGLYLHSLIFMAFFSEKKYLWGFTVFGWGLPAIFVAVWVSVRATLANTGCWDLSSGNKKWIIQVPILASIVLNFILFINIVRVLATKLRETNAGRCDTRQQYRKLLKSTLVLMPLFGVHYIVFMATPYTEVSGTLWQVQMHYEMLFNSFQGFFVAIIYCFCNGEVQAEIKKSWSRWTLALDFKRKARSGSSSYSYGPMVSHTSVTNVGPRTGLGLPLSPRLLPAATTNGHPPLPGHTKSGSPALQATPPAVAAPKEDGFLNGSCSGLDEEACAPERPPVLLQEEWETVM
Briefly: PTH binding assay in bovine renal membranes. As to conditions: radioligand [Nle8,18,125I-Tyr34]bPTH(1-34)NH2, 30 min at 21° C. As for the experimental part: PTH analogues were analyzed in a new receptor assay reported in Goldman et al., Endocrin. 123: 1468-1475 (1988). The binding assay used [Nle^8,18,^125 I-Tyr^34 ]bPTH (1-34)NH2 which was purified by HPLC (Novapak C18, 32-35% CH3 CN in 0.1% TFA) and was stored as aliquots in 25 mM TrisHCl/1%BSA at -70° C. Bovine renal cortical plasma membranes were incubated with radioligand (25,000 cpm) in a Tris-containing buffer (250 ul) for 30 min. at 21° C. Once equilibrium was reached, bound and free radioligand were separated by centrifugation. High specific binding (85%) to bovine renal cortical membranes was obtained consistently.
Turning to `CCCC[C@H](NC(=O)CCc1ccccc1)C(=O)N[C@@H](Cc1c[nH]cn1)C(=O)N[C@@H](CC(N)=O)C(=O)N[C@@H](CC(C)C)C(=O)N[C@H](Cc1c[nH]c2ccccc12)C(=O)N[C@@H](CCCCNC(=O)CCc1ccccc1)C(=O)N[C@@H](Cc1c[nH]cn1)C(=O)N[C@@H](CC(C)C)C(=O)N[C@@H](CO)C(=O)N[C@@H](CO)C(=O)N[C@@H](CCCC)C(=O)N[C@@H](CCC(=O)O)C(=O)N[C@@H](CCCNC(=N)N)C(=O)N[C@H](C(=O)N[C@@H](CCC(=O)O)C(=O)N[C@@H](Cc1c[nH]c2ccccc12)C(=O)N[C@@H](CC(C)C)C(=O)N[C@@H](CCCNC(=N)N)C(=O)N[C@@H](CCCCN)C(=O)N[C@@H](CCCCN)C(=O)N[C@@H](CC(C)C)C(=O)N[C@@H](CCC(N)=O)C(=O)N[C@@H](CC(=O)O)C(=O)N[C@H](C(=O)N[C@@H](Cc1c[nH]cn1)C(=O)N[C@@H](CC(N)=O)C(=O)N[C@@H](Cc1ccc(O)cc1)C(N)=O)C(C)C)C(C)C` [Structure 1, desamino[Nle^8,18,D-Trp^12,Lys^13 (N^ε --CO(CH2)2 -Phenyl),Tyr^34]bPTH(7-34)NH2] (Hydrocinnamoyl-[Nle]HNL[dW]K(Hydrocinnamoyl)HLSS[Nle]ERVEWLRKKLQDVHNY-NH2), the Kb was determined as 13 ± 2 nM.

The compound `CCCCCC(=O)N[C@@H](Cc1c[nH]cn1)C(=O)N[C@@H](CC(N)=O)C(=O)N[C@@H](CC(C)C)C(=O)N[C@H](Cc1c[nH]c2ccccc12)C(=O)N[C@@H](CCCCNC(=O)CCc1ccccc1)C(=O)N[C@@H](Cc1c[nH]cn1)C(=O)N[C@@H](CC(C)C)C(=O)N[C@@H](CO)C(=O)N[C@@H](CO)C(=O)N[C@@H](CCCC)C(=O)N[C@@H](CCC(=O)O)C(=O)N[C@@H](CCCNC(=N)N)C(=O)N[C@H](C(=O)N[C@@H](CCC(=O)O)C(=O)N[C@@H](Cc1c[nH]c2ccccc12)C(=O)N[C@@H](CC(C)C)C(=O)N[C@@H](CCCNC(=N)N)C(=O)N[C@@H](CCCCN)C(=O)N[C@@H](CCCCN)C(=O)N[C@@H](CC(C)C)C(=O)N[C@@H](CCC(N)=O)C(=O)N[C@@H](CC(=O)O)C(=O)N[C@H](C(=O)N[C@@H](Cc1c[nH]cn1)C(=O)N[C@@H](CC(N)=O)C(=O)N[C@@H](Cc1ccc(O)cc1)C(N)=O)C(C)C)C(C)C` [Structure 2, desamino[Nle^8,18,D-Trp^12,Lys^13 (N^ε --CO(CH2)2 -Phenyl),Tyr^34]bPTH(8-34)NH2] (Hexanoyl-HNL[dW]K(Hydrocinnamoyl)HLSS[Nle]ERVEWLRKKLQDVHNY-NH2) registered a Kb of 4 ± 1 nM.

Consider `CCCC[C@H](NC(=O)[C@H](CO)NC(=O)[C@H](CO)NC(=O)[C@H](CC(C)C)NC(=O)[C@H](Cc1c[nH]cn1)NC(=O)[C@H](CCCCNC(=O)CCc1ccccc1)NC(=O)[C@@H](Cc1c[nH]c2ccccc12)NC(=O)[C@H](CC(C)C)NC(=O)[C@H](CC(N)=O)NC(=O)[C@H](Cc1c[nH]cn1)NC(=O)[C@H](CCCC)NC(=O)[C@@H](N)Cc1ccccc1)C(=O)N[C@@H](CCC(=O)O)C(=O)N[C@@H](CCCNC(=N)N)C(=O)N[C@H](C(=O)N[C@@H](CCC(=O)O)C(=O)N[C@@H](Cc1c[nH]c2ccccc12)C(=O)N[C@@H](CC(C)C)C(=O)N[C@@H](CCCNC(=N)N)C(=O)N[C@@H](CCCCN)C(=O)N[C@@H](CCCCN)C(=O)N[C@@H](CC(C)C)C(=O)N[C@@H](CCC(N)=O)C(=O)N[C@@H](CC(=O)O)C(=O)N[C@H](C(=O)N[C@@H](Cc1c[nH]cn1)C(=O)N[C@@H](CC(N)=O)C(=O)N[C@@H](Cc1ccc(O)cc1)C(N)=O)C(C)C)C(C)C` [Structure 3, [Nle^8,18,D-Trp^12,Lys^13 (N^ε --CO(CH2)2 -Phenyl),Tyr^34]bPTH(7-34)NH2], for which the Kb came out at 4 ± 1 nM.

As for `CCCC[C@H](NC(=O)[C@H](CO)NC(=O)[C@H](CO)NC(=O)[C@H](CC(C)C)NC(=O)[C@H](Cc1c[nH]cn1)NC(=O)[C@H](CCCCN(CC(C)C)CC(C)C)NC(=O)[C@@H](Cc1c[nH]c2ccccc12)NC(=O)[C@H](CC(C)C)NC(=O)[C@H](CC(N)=O)NC(=O)[C@H](Cc1c[nH]cn1)NC(=O)[C@H](CCCC)NC(=O)[C@@H](N)Cc1ccccc1)C(=O)N[C@@H](CCC(=O)O)C(=O)N[C@@H](CCCNC(=N)N)C(=O)N[C@H](C(=O)N[C@@H](CCC(=O)O)C(=O)N[C@@H](Cc1c[nH]c2ccccc12)C(=O)N[C@@H](CC(C)C)C(=O)N[C@@H](CCCNC(=N)N)C(=O)N[C@@H](CCCCN)C(=O)N[C@@H](CCCCN)C(=O)N[C@@H](CC(C)C)C(=O)N[C@@H](CCC(N)=O)C(=O)N[C@@H](CC(=O)O)C(=O)N[C@H](C(=O)N[C@@H](Cc1c[nH]cn1)C(=O)N[C@@H](CC(N)=O)C(=O)N[C@@H](Cc1ccc(O)cc1)C(N)=O)C(C)C)C(C)C` [Structure 4, [Nle^8,18,D-Trp^12,Lys^13 (N^ε,N^ε -diisobutyl),Tyr^34]bPTH(7-34)NH2], the Kb came to 35 ± 4 nM.
